# Measurements published in patent US20060185030A1, “Cytokinin response regulators and uses thereof” (priority 2001, published 2006).
# B1: ARR10: Arabidopsis B-type response regulator (SEQ ID NO.: 9), over-expressed from effector plasmid (protein, listed as Arabidopsis thaliana)
# chain: MTMEQEIEVLDQFPVGMRVLAVDDDQTCLRILQTLLQRCQYHVTTTNQAQTALELLRENKNKFDLVISDVDMPDMDGFKLLELVGLEMDLPVIMLSAHSDPKYVMKGVKHGACDYLLKPVRIEELKNIWQHVVRKSKLKKNKSNVSNGSGNCDKANRKRKEQYEEEEEEERGNDNDDPTAQKKPRVLWTHELHNKFLAAVDHLGVERAVPKKILDLMNVDKLTRENVASHLQKFRVALKKVSDDAIQQANRAAIDSHFMQMNSQKGLGGFYHHHRGIPVGSGQFHGGTTMMRHYSSNRNLGRLNSLGAGMFQPVSSSFPRNHNDGGNILQGLPLEELQINNNINRAFPSFTSQQNSPMVAPSNLLLLEGNPQSSSLPSNPGFSPHFEISKRLEHWSNAALSTNIPQSDVHSKPDTLEWNAFCDSASPLVNPNLDTNPASLCRNTGFGSTNAAQTDFFYPLQMNQQPANNSGPVTEAQLFRSSNPNEGLLMGQQKLQSGLMASDAGSLDDIVNSLMTQEQSQSDFSEGDWDLDGLAHSEHAYEKLHFPFSLSA
# B2: ARR1: Arabidopsis B-type response regulator (SEQ ID NO.: 2), over-expressed from effector plasmid (protein, listed as Arabidopsis thaliana)
# chain: MALSLLRKNKHGFDIVISDVHMPDMDGFKLLEHVGLEMDLPVIMMSADDSKSVVLKGVTHGAVDYLIKPVRMEALKNIWQHVVRKRRSEWSVPEHSGSIEETGERQQQQHRGGGGGAAVSGGEDAVDDNSSSVNEGNNWRSSSRKRKDEEGEEQGDDKDEDASNLKKPRVVWSVELHQQFVAAVNQLGVEKAVPKKILELMNVPGLTRENVASHLQKYRIYLRRLGGVSQHQGNLNNSFMTGQDASFGPLSTLNGFDLQALAVTGQLPAQSLAQLQAAGLGRPAMVSKSGLPVSSIVDERSIFSFDNTKTRFGEGLGHHGQQPQQQPQMNLLHGVPTGLQQQLPMGNRMSIQQQIAAVRAGNSVQNNGMLMPLAGQQSLPRGPPPMLTSSQSSIRQPMLSNRISERSGFSGRNNIPESSRVLPTSYTNLTTQHSSSSMPYNNFQPELPVNSFPLASAPGISVPVRKATSYQEEVNSSEAGFTTPSYDMFTTRQNDWDLRNIGIAFDSHQDSESAAFSASEAYSSSSMSRHNTTVAATEHGRNHQQPPSGMVQHHQVYADGNGGSVRVKSERVATDTATMAFHEQYSNQEDLMSALLKQEGIAPVDGEFDFDAYSIDNIPV
# B3: ARR2: Arabidopsis B-type response regulator (SEQ ID NO.: 3), over-expressed from effector plasmid (protein, listed as Arabidopsis thaliana)
# chain: MVNPGHGRGPDSGTAAGGSNSDPFPANLRVLVVDDDPTCLMILERMLMTCLYREQRAHCLCFGRTKNGFDIVISDVHMPDMDGFKLLEHVGLEMDLPVINLNVLKPLVIVMSADDSKSVVLKGVTHGAVDYLIKPVRIEALKNIWQHVVRKKRNEWNVSEHSGGSIEDTGGDRDRQQQHREDADNNSSSVNEGNGRSSRKRKEEEVDDQGDDKEDSSSLKKPRVVWSVELHQQFVAAVNQLGVDSELKTCLLMHLCVSIGNIVEFQKYRIYLRRLGGVSQHQGNMNHSFMTGQDQSFGPLSSLNGFDLQSLAVTGQLPPQSLAQLQAAGLGRPTLAKPGMSVSPLVDQRSIFNFENPKIRFGDGHGQTMNNGNLLHGVPTGSHMRLRPGQNVQSSGMMLPVADQLPRGGPSMLPSLGQQPILSSSVSRRSDLTGALAVRNSIPETNSRVLPTTHSVFNNFPADLPRSSFPLASAPGISVPVSVSYQEEVNSSDAKGGSSAATAGFGNPSYDIFNDFPQHQQHNKNISNKLNDWDLRNMGLVFSSNQDAATATATAAFSTSEAYSSSSTQRKRRETDATVVGEHGQNLQSPSRNLYHLNHVFMDGGSVRVKSERVAETVTCPPANTLFHEQYNQEDLMSAFLKQV
# How the values were obtained:
# [1] = test system: CKI1-GFP; experiment: GFP fusion expression and localization in transfected protoplasts (confocal microscopy); assay type: cell-based, Arabidopsis; details: tunicamycin 1 μg/ml, 12 hours
# Experimental: To gain insight into where the cytokinin signalling is perceived, the sub-cellular localization of CKI1 was examined using the CKI1-GFP fusion. We first confirmed that CKI1-GFP acted similarly as CKI1-HA in the protoplast assay based on ARR6-LUC activation (FIG. 1D). […] Specifically, protoplasts were transfected with CKI1-GFP or various GFP marker plasmid DNA. Tunicamycin (1 μg/ml) treatment was for 12 hours. The transfected protoplasts were analyzed with a confocal microscope. The subcellular GFP markers are “CAT-GFP” for the cytosol, “ER-GFP” for the endoplasmic reticulum, and “N-GFP” (HSP-GFP) for the nucleus. Since the N-terminus of CKI1 is replete with putative glycosylation sites, the effect of a glycosylation inhibitor, tunicamycin, in CKI1-GFP expression, localization or function was examined.
# [2] = test system: Arabidopsis seedlings; experiment: Seedling cytokinin response assay; assay type: in vivo; details: medium with 0.15 mg/L IAA alone or with 0.15 mg/L IAA and 5 mg/L 2IP, 14 days
# Excerpt: In tissue culture, induction of cell proliferation and subsequent shoot formation require cytokinin. To determine whether the same cytokinin signalling pathway is responsible for transcription regulation, cell proliferation, shoot meristem initiation, and leaf formation, we developed a seedling cytokinin response assay. In FIGS. 4A and 4B, Arabidopsis seedlings were transformed with Agrobacteria carrying GFP, CKI1, CKI1 (H405Q), ARR2, and ARR6 constructs in the mini-binary vector pCB302 (Xiang et al., Plant Mol. Biol. 40: 711-7, 1999). Seedlings transformed with the Agrobacteria carrying the binary vector pCB301 […] a Bar selection marker were used as a transformation control (vector). The transformed seedlings were selected with glufosinate ammonium (10 μg/ml) and maintained on medium with auxin (IAA) only (FIG. 4A, +IAA, −2IP) or with auxin and cytokinin (FIG. 4B, +IAA, +2IP) for 14 days. The transformed tissues were mostly derived from the shoot apical meristem. […] Both CKI1 and ARR2 promoted extensive cell proliferation and shoot formation even without exogenous cytokinin. The experiments were repeated three times with similar results. […] The results of this cytokinin seedling assay are consistent with those from protoplast transient expression analyses based on transcription. […]
# [3] = test system: ARR6 promoter; experiment: Arabidopsis mesophyll protoplast transient expression assay, ARR6-LUC reporter; assay type: cell-based; details: for activity of ARR6-LUC (hormone specificity): 100 nM t-zeatin, 1 μM IAA or 100 μM ABA, 3 hours of incubation; for induction of the reporter gene ARR6-LUC by cytokinin analogues: 100 nM, FIG. 1C; for activation of ARR6-LUC by over-expressed effector: absence of exogenous cytokinin
# Experimental: To elucidate the regulatory circuitry in cytokinin signal transduction, a leaf cell assay based on cytokinin inducible transcription in Arabidopsis mesophyll protoplasts was developed. The 2.4 kb promoter of an Arabidopsis cytokinin primary response gene (SEQ ID NO.: 1), encoding the response regulator 6 (ARR6), was fused to the firefly luciferase (LUC) reporter. In FIG. 1A, transfected protoplasts were incubated with or without 100 nM t-zeatin, 1 μM indole-3-acetic acid (IAA), or 100 μM ABA. After 3 hours of incubation, LUC and GUS activities were determined.
# (§1) Arabidopsis Bensheim (BE) protoplasts were isolated and transfected as described with some modifications (Kovtun et al., Proc. Natl. Acad. Sci. USA 97: 2940-5 2000). […] For instance, in the experiments shown in FIG. 1A, protoplasts (4×10^4) were transfected with 2 μg of UBQ10-GUS (internal control) and 20 μg of ARR6-LUC, GH3-LUC, or RD29ALUC plasmid DNA. Transfected protoplasts were incubated at 1×10^4 per mil with/without 1-100 nM of t-zeatin for 3-6 hours under the light at 23° C. The UBQ10-GUS construct was used as an internal control to normalize the variations of each transfection in cell numbers, transformation efficiency and cell viability. […] GFP fluorescence was observed by either Nikon TE200 fluorescent microscopy or Leica TCSNT confocal microscopy.
# [4] = test system: GH3 promoter; experiment: Arabidopsis mesophyll protoplast transient expression assay, GH3-LUC reporter; assay type: cell-based; details: 1 μM IAA, 3 hours
# [5] = test system: RD29A promoter; experiment: Arabidopsis mesophyll protoplast transient expression assay, RD29A-LUC reporter; assay type: cell-based; details: 100 μM ABA, 3 hours
# [6] = test system: AHP5-GFP; details: 100 nM t-zeatin, 30 minutes
# Experimental: (§2) To gain further in vivo support for the involvement of AHPs in cytokinin signalling, the action of AHP1-GFP in transfected protoplast in the absence or presence of cytokinin was followed using fluorescence microscopy. Specifically, protoplasts were transfected with AHP1-GFP, AHP2-GFP, or AHP5-GFP and incubated for 3 hours to allow sufficient expression.
# as §1
# [7] = test system: AHP1-GFP; details: 100 nM t-zeatin, 30 minutes
# Experimental: as §2, §1
molecule,measurement,setting,value
tunicamycin,expression of CKI1-GFP,[1],completely abolished
same,expression of other GFP constructs,"[1]; CAT-GFP, ER-GFP, N-GFP markers",did not affect
"O=C(O)Cc1c[nH]c2ccccc12 [IAA, indole-3-acetic acid]",callus / shoot formation of GFP control transformed seedlings,[2],green callus formation
same,activity of ARR6-LUC (hormone specificity),[3],not by other plant hormones
same,GH3 promoter activation,[4],only activated
"CC1=CC(=O)CC(C)(C)[C@@]1(O)/C=C/C(C)=C\C(=O)O [ABA, abscisic acid]",activity of ARR6-LUC (hormone specificity),[3],not by other plant hormones
same,RD29A promoter induction,[5],solely induced
"C/C(=C\CNc1ncnc2nc[nH]c12)CO [t-zeatin, trans-zeatin]",activity of ARR6-LUC (hormone specificity),[3],specifically induced
same,induction of the reporter gene ARR6-LUC by cytokinin analogues,[3],induced
same,AHP5-GFP cytokinin-dependent translocation,[6],not
same,AHP1-GFP localization after cytokinin treatment,[7],translocated into the nucleus
"c1ccc(CNc2ncnc3nc[nH]c23)cc1 [BA, benzyladenine]",induction of the reporter gene ARR6-LUC by cytokinin analogues,[3],induced
B1,activation of ARR6-LUC by over-expressed effector,[3],about 10 fold
same,further enhancement by cytokinin of effector's effect on ARR6-LUC activity,"[3]; with cytokinin, relative to effector alone",10-20 fold
B2,activation of ARR6-LUC by over-expressed effector,[3],about 40 fold
B3,activation of ARR6-LUC by over-expressed effector,[3],~400 fold
same,activation of ARR6-LUC by over-expressed effector with cytokinin treatment,"[3]; with cytokinin (100 nM t-zeatin, 3 hours)",over 1000 fold
